Experiments:
[1] = system: secondary NCSC populations; test: Dosage sensitivity of secondary NCSC to instructive differentiation factors BMP2 and sDl1; assay type: cell-based; settings: clones expanded 18 days; 5 μM TRAP, sJ1 or thrombin
Protocol: Secondary NCSC population were generated from founder NCSC clones after 13 days of growth in Morrison media supplemented either with 7.5 nM sJ1 (▴-▴), 5 μg/ml α-thrombin (▾-▾), 5 μM TRAP (♦-♦) or no additive (control; ▪-▪) and compared to freshly isolated populations of NCSC (●-●). […] Clonogenic differentiation assays of secondary P75^+/P0^− NCSC populations were assayed in Morrison media as a function of the concentration of the neurogenic differentiation factor, BMP2, and the generation of Neuron-only clones was assessed 14 days after the addition of BMP2. […] Clonogenic differentiation assays of secondary P75^+/P0^− NCSC were preformed in Morrison media supplemented with increasing concentrations of the gliogenic differentiation factor, sDl1 and the generation of Glial-only clones was assessed 14 days after the addition of sDl1. […]
It is well established that quantitative changes in the dosage sensitivity of NCSC populations occur in vitro and in vivo during NCSC self-renewal (Kubu et al., 2002, Dev. Biol. 244:199-214; White et al., 1999, Development 126:4351-4363; White et al., 2001, Neuron 29:57-71). […] The dosage sensitivity of secondary NCSC populations to both BMP2 and sDl1 was evaluated using the clonogenic differentiation assay to quantitate the production of neuron-only clones (BMP2) and glial-only clones (sDl1) after day 18.

[2] = system: HEY and Deltex transcripts in NCSC populations; test: RT-PCR analyses of Notch down-stream effectors; assay type: cell-based
Text: It is also interesting that sJ1 and sDl1 induce distinctive phenotypic outcomes. Whereas sJ1:Notch interactions enable stamatogenesis, sDl1:Notch associations lead to an immediate loss of neurogenic potential. […] Likewise, Delta1, but not Jagged1, is able to promote the in vitro development of human cord blood-derived progenitor cells with a T cell/natural killer cell phenotype (Jaleco et al., 2001, J. Exp. Med. 194:991-1002), and sJ1 is able to promote the clonal expansion of hematopoietic stem cells in vitro (Vas et al., 2004, J. Leukoc. Biol., in press). […] Thus, it appears that sJ1 and sDl1 induce different cell fate decisions in NCSC populations. […] Thus, without wishing to be bound by any particular theory, the levels of Notch signaling may be paramount in regulating the undifferentiated expansion of multipotential neural stem cells, and thrombin and/or sJ1, may be one of the key elements in this process that enable stamatogenesis to occur.

[3] = system: FGF1 transcript in NIH 3T3 and Swiss 3T3 cells; test: Nuclear run-on analysis of FGF1 transcription; assay type: cell-based, murine
Protocol: Approximately either 1×10^7 Swiss or NIH 3T3 cells were harvested and washed using ice-cold 50 mM sodium phosphate buffer, pH 7.0 containing 15 mM NaCl. Cell pellets were lysed in 4 ml of ice-cold 10 mM Tris-HCl, pH 7.5, containing 3 mM CaCl2, 3 mM MgCl2, 10 mM NaCl, and 0.5% NP-40. The nuclear pellet was resuspended in glycerol storage buffer (50 mM Tris-HCl, pH 8.3 containing 40% glycerol, 5 mM MgCl2 and 0.1 mM EDTA), the nuclei were snap frozen, and stored in liquid nitrogen. For run-on transcription, 200 μl aliquots of the frozen nuclei were added to 200 μl of reaction buffer (10 mM Tris-HCl, pH 8.3 containing 5 mM MgCl2, 300 mM KCl, 5 mM DTT, 1 mM each of ATP, CTP, and GTP, 40 units of RNase inhibitor and 100 μCi of [^32P]UTP (800 Ci/mmol; Amersham), and incubated at 30° C. for 30 minutes. The mixture was treated with 100 units of RNase-free DNase I for 30 minutes at 30° C. and then incubated with 400 μl of 20 mM Tris-HCl, pH 7.5, containing 2% SDS, 10 mM EDTA, […] proteinase K for 30 minutes at 42° C. Following phenol/CHCl3 extraction, the labelled transcripts were precipitated with isopropanol and dissolved in 50 μl of 10 mM TES, pH 7.5, containing 10 mM EDTA and 0.2% SDS. Linearized plasmid constructs (0.4 μg/dot) containing either the fgfl or gapdh cDNA were alkali denatured and immobilized onto a Hybond-N^+ membrane (Amersham). Hybridization was performed in 1 ml of ULTRA Hyb (Ambion), with 5×10^6 cpm of radiolabeled RNA and yeast RNA (10 μg/ml) for 18 hours with shaking at 50° C. Membranes were washed twice with washing buffer (2×SSC containing 0.1% SDS) at 50° C. and analyzed using a phosphoimager (Molecular Dynamics).

NSC populations = test: Clonal expansion of NSC on NIH 3T3 transfectant feeder layer; assay type: cell-based

Molecule | shift in sensitivity to instructive differentiation signals [1] | steady-state levels of HEY and Deltex transcripts [2] | induction of FGF1 transcript ([3]; 10 μg/ml α-thrombin or 5 μM TRAP) | time at which FGF1 mRNA was initially detected ([3]; after addition of thrombin) | time to plateau of FGF1 mRNA ([3]; after addition of thrombin) | effect on size of NSC colonies (NSC populations; full-length Delta1 NIH 3T3 cell transfectant feeder layer) | effect on size of NSC colonies (NSC populations; full-length Jagged1 NIH 3T3 cell transfectant feeder layer, 5 μg/ml thrombin)
sJ1: Soluble Jagged1, amino acid residues from about 1 to 1067 (SEQ ID NO:3) of full-length Jagged1 | not observed | suppression | – | – | – | – | –
Thrombin | not observed | – | able to induce | 15 min | ≤ 2 h | failed to induce | exaggeration of the size of the NSC colonies
sDl1: soluble non-transmembrane form of the Notch ligand Delta1 (protein, left off: small tags and cut ends, soluble non-transmembrane form of the Notch ligand Delta1) QVWSSGVFELKLQEFVNKKGLLGNRNCCRGGAGPPPCACRTFFRVCLKHYQASVSPEPPCTYGSAVTPVLGVDSFSLPDGGGADSAFSNPIRFPFGFTWPGTFSLIIEALHTDSPDDLATENPERLISRLATQRHLTVGEEWSQDLHSSGRTDLKYSYRFVCDEHYYGEGCSVFCRPRDDAFGHFTCGERGEKVCNPGWKGPYCTEPICLPGCDEQHGFCDKPGECKCRVGWQGRYCDECIRYPGCLHGTCQQPWQCNCQEGWGGLFCNQDLNYCTHHKPCKNGATCTNTGQGSYTCSCRPGYTGATCELGIDECDPSPCKNGGSCTDLENSYSCTCPPGFYGKICELSAMTCADGPCFNGGRCSDSPDGGYSCRCPVGYSGFNCEKKIDYCSSSPCSNGAKCVDLGDAYLCRCQAGFSGRHCDDNVDDCASSPCANGGTCRDGVNDFSCTCPPGYTGRNCSAPVSRCEHAPCHNGATCHERGHRYVCECARGYGGPNCQFLLPELPPGPAVVDLTEKLEGQGGPFPW | – | not | – | – | – | – | –

Source: patent publication US7501281B2, “Compositions, methods and kits related to thrombin, Notch signaling and stamatogenesis and growth of stem cells” (Maine Medical Center Research Institute, priority 2003, dated 2009)
